Among the data in US20220135591A1, “HETEROCYCLIC COMPOUNDS AS INHIBITORS OF MONOACYLGLYCEROL LIPASE (MAGL)” (Hoffmann-La Roche Inc., priority 2019, published 2022) are IC50 values, retold here.

Each structure is given as a SMILES string.

This assay concerns the target T1, MAGL (recombinant wild-type) (Homo sapiens, UniProt Q99685).
T1 sequence (Q99685 1-303): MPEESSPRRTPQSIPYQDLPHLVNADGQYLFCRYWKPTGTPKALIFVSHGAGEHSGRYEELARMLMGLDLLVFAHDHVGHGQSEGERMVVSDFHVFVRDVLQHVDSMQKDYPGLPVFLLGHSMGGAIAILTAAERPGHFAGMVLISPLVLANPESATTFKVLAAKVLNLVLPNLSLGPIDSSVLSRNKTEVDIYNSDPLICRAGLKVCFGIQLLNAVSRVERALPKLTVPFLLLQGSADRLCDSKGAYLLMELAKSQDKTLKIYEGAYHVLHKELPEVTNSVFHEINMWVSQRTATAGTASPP
Nature of the assay: 4-NPA assay: MAGL inhibitory activity by hydrolysis of 4-nitrophenylacetate, absorbance at 405 nm. To be noted: 4-NPA assay (values without footnote [b]). The format is biochemical. The essentials:
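Final assay: 1 nM MAGL and 300 μM 4-nitrophenylacetate in 50 mM Tris, 1 mM EDTA, at RT. Compounds (25 μM–1.7 nM, 3-fold steps) were preincubated 15 min with enzyme. A405 was read 5 min after substrate addition and again after 80 min; activity was taken as the difference between reads.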
For the compound `CC(OC1CN(c2ccc(C(=O)N3CCN(c4nc5ncccc5o4)CC3)cc2)C1)C(F)(F)F` (stereo not shown) [Example 193, (4-(oxazolo[4,5-b]pyridin-2-yl)piperazin-1-yl)(4-(3-((1,1,1-trifluoropropan-2-yl)oxy)azetidin-1-yl)phenyl)methanone], the half-inhibitory concentration (IC50) was 355 nM.

Take `Cc1ccc2oc(N3CCN(C(=O)c4ccc(N5CC6(CCCO6)C5)cc4)CC3)nc2n1` [Example 194, (4-(5-oxa-2-azaspiro[3.4]octan-2-yl)phenyl)(4-(5-methyloxazolo[4,5-b]pyridin-2-yl)piperazin-1-yl)methanone]: the 50% inhibitory concentration (IC50) was 486 nM.

Consider `Cc1ccc2oc(N3CCN(C(=O)c4ccc(N5CC(OC(C)C(F)(F)F)C5)cc4)CC3)nc2n1` (stereo not shown) [Example 195, (4-(5-methyloxazolo[4,5-b]pyridin-2-yl)piperazin-1-yl)(4-(3-((1,1,1-trifluoropropan-2-yl)oxy)azetidin-1-yl)phenyl)methanone], for which the IC50 came to 39 nM.

`O=C(c1ccc(N2CC(Oc3ccccc3)C2)cc1)N1CCN(c2nc3ncccc3o2)CC1` [Example 196, (4-(oxazolo[4,5-b]pyridin-2-yl)piperazin-1-yl)(4-(3-phenoxyazetidin-1-yl)phenyl)methanone]: the IC50 amounted to 441 nM.

On to `COc1ccc2oc(N3CCN(C(=O)c4ccc(-c5noc(C(C)(C)C)n5)cc4)CC3)nc2n1` [Example 197, (4-(5-(tert-butyl)-1,2,4-oxadiazol-3-yl)phenyl)(4-(5-methoxyoxazolo[4,5-b]pyridin-2-yl)piperazin-1-yl)methanone], for which the IC50 stood at 471 nM.

Regarding `Cc1ccc2oc(N3CCN(C(=O)c4ccc(N5CC(Oc6ccccc6)C5)cc4)CC3)nc2n1` [Example 198, (4-(5-methyloxazolo[4,5-b]pyridin-2-yl)piperazin-1-yl)(4-(3-phenoxyazetidin-1-yl)phenyl)methanone], the IC50 came to 46 nM.

As for `Cc1ccc2oc(N3CCN(C(=O)c4ccc(OCc5cccc(Cl)c5)c(-c5ncc[nH]5)c4)CC3)nc2n1` [Example 199, [4-[(3-chlorophenyl)methoxy]-3-(1H-imidazol-2-yl)phenyl]-[4-(5-methyl-[1,3]oxazolo[4,5-b]pyridin-2-yl)piperazin-1-yl]methanone], the 50% inhibitory concentration (IC50) stood at 625 nM.

Turning to `Cc1ccc2oc(N3CCN(C(=O)c4ccc(N5CC(O[C@@H](C)C(F)(F)F)C5)cc4)CC3)nc2n1` [Example 200, (S)-(4-(5-methyloxazolo[4,5-b]pyridin-2-yl)piperazin-1-yl)(4-(3-((1,1,1-trifluoropropan-2-yl)oxy)azetidin-1-yl)phenyl)methanone], the IC50 was 15 nM.

Turning to `Cc1ccc2oc(N3CCN(C(=O)c4ccc(N5CC(O[C@H](C)C(F)(F)F)C5)cc4)CC3)nc2n1` [Example 201, (R)-(4-(5-methyloxazolo[4,5-b]pyridin-2-yl)piperazin-1-yl)(4-(3-((1,1,1-trifluoropropan-2-yl)oxy)azetidin-1-yl)phenyl)methanone], the IC50 was 38 nM.

As for `O=C(c1ccc(N2CCC3(C2)CC3(F)F)cc1)N1CCN(c2nc3nc(Cl)ccc3o2)CC1` (stereo not shown) [Example 202, [4-(5-chloro-[1,3]oxazolo[4,5-b]pyridin-2-yl)piperazin-1-yl]-[4-(2,2-difluoro-5-azaspiro[2.4]heptan-5-yl)phenyl]methanone], the IC50 was found to be 14 nM.

Regarding `O=C(c1ccc(N2CC3(CCC3(F)F)C2)cc1)N1CCN(c2nc3nc(Cl)ccc3o2)CC1` [Example 203, [4-(5-chloro-[1,3]oxazolo[4,5-b]pyridin-2-yl)piperazin-1-yl]-[4-(7,7-difluoro-2-azaspiro[3.3]heptan-2-yl)phenyl]methanone], the IC50 was found to be 35 nM.

On to `CC(C)(C)OC1CN(c2ccc(C(=O)N3CCN(c4nc5nc(Cl)ccc5o4)CC3)cc2)C1` [Example 204, (4-(3-(tert-butoxy)azetidin-1-yl)phenyl)(4-(5-chlorooxazolo[4,5-b]pyridin-2-yl)piperazin-1-yl)methanone], for which the IC50 stood at 18 nM.

As to `CCC(C)(C)OC1CN(c2ccc(C(=O)N3CCN(c4nc5nc(Cl)ccc5o4)CC3)cc2)C1` [Example 205, (4-(5-chlorooxazolo[4,5-b]pyridin-2-yl)piperazin-1-yl)(4-(3-(tert-pentyloxy)azetidin-1-yl)phenyl)methanone], the IC50 was found to be 5 nM.

In the case of `Cc1ccc2oc(N3CCN(C(=O)c4ccc(N5CC6(CCC6(F)F)C5)cc4)CC3)nc2n1` [Example 206, (4-(5,5-difluoro-2-azaspiro[3.3]heptan-2-yl)phenyl)(4-(5-methyloxazolo[4,5-b]pyridin-2-yl)piperazin-1-yl)methanone], the IC50 was determined as 61 nM.

For the compound `Cc1ccc2oc(N3CCN(C(=O)c4ccc(N5CC(OC(C)C(F)(F)F)C5)cc4F)CC3)nc2n1` (stereo not shown) [Example 207, (2-fluoro-4-(3-((1,1,1-trifluoropropan-2-yl)oxy)azetidin-1-yl)phenyl)(4-(5-methyloxazolo[4,5-b]pyridin-2-yl)piperazin-1-yl)methanone], the IC50 is 16 nM.

In the case of `CC(OC1CN(c2ccc(C(=O)N3CCN(c4nc5nc(Cl)ccc5o4)CC3)cc2)C1)C(F)(F)F` (stereo not shown) [Example 208, (4-(5-chlorooxazolo[4,5-b]pyridin-2-yl)piperazin-1-yl)(4-(3-((1,1,1-trifluoropropan-2-yl)oxy)azetidin-1-yl)phenyl)methanone], the IC50 was found to be 16 nM.

For `CCOC1(C)CN(c2ccc(C(=O)N3CCN(c4nc5nc(Cl)ccc5o4)CC3)cc2)C1` [Example 209, (4-(5-chlorooxazolo[4,5-b]pyridin-2-yl)piperazin-1-yl)(4-(3-ethoxy-3-methylazetidin-1-yl)phenyl)methanone], the IC50 worked out at 235 nM.

Consider `Cc1ccc2oc(N3CCN(C(=O)c4ccc(N5CC(OC(C)C(F)(F)F)C5)c(F)c4)CC3)nc2n1` (stereo not shown) [Example 210, (3-fluoro-4-(3-((1,1,1-trifluoropropan-2-yl)oxy)azetidin-1-yl)phenyl)(4-(5-methyloxazolo[4,5-b]pyridin-2-yl)piperazin-1-yl)methanone], for which the IC50 amounted to 24 nM.

As to `Cc1ccc2oc(N3CCN(C(=O)c4ccc(N5CC(OC(C)C(F)(F)F)C5)cc4C)CC3)nc2n1` (stereo not shown) [Example 211, (2-methyl-4-(3-((1,1,1-trifluoropropan-2-yl)oxy)azetidin-1-yl)phenyl)(4-(5-methyloxazolo[4,5-b]pyridin-2-yl)piperazin-1-yl)methanone], the half-inhibitory concentration (IC50) stood at 346 nM.

As for `Cc1ccc2oc(N3CCN(C(=O)c4c(F)cc(N5CC(OC(C)C(F)(F)F)C5)cc4F)CC3)nc2n1` (stereo not shown) [Example 212, (2,6-difluoro-4-(3-((1,1,1-trifluoropropan-2-yl)oxy)azetidin-1-yl)phenyl)(4-(5-methyloxazolo[4,5-b]pyridin-2-yl)piperazin-1-yl)methanone], the IC50 turned out to be 1130 nM.

In the case of `Cc1ccc2oc(N3CCN(C(=O)c4ccc(N5CC(OC(C)C(F)(F)F)C5)cc4Cl)CC3)nc2n1` (stereo not shown) [Example 213, (2-chloro-4-(3-((1,1,1-trifluoropropan-2-yl)oxy)azetidin-1-yl)phenyl)(4-(5-methyloxazolo[4,5-b]pyridin-2-yl)piperazin-1-yl)methanone], the IC50 is 99 nM.

Turning to `Cc1ccc2oc(N3CCN(C(=O)c4ccc(N5CC(OC(C)C(F)(F)F)C5)nc4)CC3)nc2n1` (stereo not shown) [Example 214, (4-(5-methyloxazolo[4,5-b]pyridin-2-yl)piperazin-1-yl)(6-(3-((1,1,1-trifluoropropan-2-yl)oxy)azetidin-1-yl)pyridin-3-yl)methanone], the IC50 is 170 nM.

Regarding `CCC(C)(C)OC1CN(c2ccc(C(=O)N3CCN(c4nc5nc(C)ccc5o4)CC3)cn2)C1` [Example 215, (4-(5-methyloxazolo[4,5-b]pyridin-2-yl)piperazin-1-yl)(6-(3-(tert-pentyloxy)azetidin-1-yl)pyridin-3-yl)methanone], the IC50 is 70 nM.

`Cc1ccc2oc(N3CCN(C(=O)c4cnc(N5CC(OC(C)C(F)(F)F)C5)c(C)c4)CC3)nc2n1` (stereo not shown) [Example 216, (5-methyl-6-(3-((1,1,1-trifluoropropan-2-yl)oxy)azetidin-1-yl)pyridin-3-yl)(4-(5-methyloxazolo[4,5-b]pyridin-2-yl)piperazin-1-yl)methanone]: the IC50 turned out to be 113 nM.

Consider `Cc1ccc2oc(N3CCN(C(=O)c4cnc(N5CC(OC(C)C(F)(F)F)C5)c(F)c4Cl)CC3)nc2n1` (stereo not shown) [Example 217, (4-chloro-5-fluoro-6-(3-((1,1,1-trifluoropropan-2-yl)oxy)azetidin-1-yl)pyridin-3-yl)(4-(5-methyloxazolo[4,5-b]pyridin-2-yl)piperazin-1-yl)methanone], for which the IC50 stood at 167 nM.

Turning to `Cc1ccc2oc(N3CCN(C(=O)c4ccc(N5CC(OC(C)C(F)(F)F)C5)nn4)CC3)nc2n1` (stereo not shown) [Example 218, (4-(5-methyloxazolo[4,5-b]pyridin-2-yl)piperazin-1-yl)(6-(3-((1,1,1-trifluoropropan-2-yl)oxy)azetidin-1-yl)pyridazin-3-yl)methanone], the IC50 stood at 1540 nM.

Regarding `Cc1ccc2oc(N3CCN(C(=O)c4cnc(N5CC(OC(C)C(F)(F)F)C5)nc4)CC3)nc2n1` (stereo not shown) [Example 219, (4-(5-methyloxazolo[4,5-b]pyridin-2-yl)piperazin-1-yl)(2-(3-((1,1,1-trifluoropropan-2-yl)oxy)azetidin-1-yl)pyrimidin-5-yl)methanone], the IC50 stood at 220 nM.

Take `Cc1ccc2oc(N3CCN(C(=O)c4cnc(N5CC(OC(C)C(F)(F)F)C5)cc4C)CC3)nc2n1` (stereo not shown) [Example 220, (4-methyl-6-(3-((1,1,1-trifluoropropan-2-yl)oxy)azetidin-1-yl)pyridin-3-yl)(4-(5-methyloxazolo[4,5-b]pyridin-2-yl)piperazin-1-yl)methanone]: the IC50 stood at 4000 nM.

The term IC50 denotes the concentration at which inhibition is half-maximal.
